Data taken from the supplement of paper PMC13207355.

Tests used:
Settings in all cases: exposure time: 72 h
E28 [1] = patient-derived glioblastoma stem cells of classical subtype; assay: surviving fraction (nuclei count normalised to DMSO); higher = more cells surviving (less toxic)
E34 [2] = patient-derived glioblastoma stem cells of proneural subtype; assay: as above
E13 [3] = patient-derived glioblastoma stem cells of classical subtype; assay: as above
E21 [4] = patient-derived glioblastoma stem cells of mesenchymal subtype; assay: as above
E57 [5] = patient-derived glioblastoma stem cells of mesenchymal subtype; assay: as above
FT3469 [6] = normal neural stem cell line; assay: as above
E31 [7] = patient-derived glioblastoma stem cells of proneural subtype; assay: as above
E28 [8] = assay: phenotypic distance (Euclidean, principal components) from DMSO controls (arbitrary units); higher = stronger morphological change
E34 [9] = assay: as above
E13 [10] = assay: as above
E21 [11] = assay: as above
E57 [12] = assay: as above
FT3469 [13] = assay: as above
E31 [14] = assay: as above
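Wherever phenotypic distance (Euclidean, principal components) from DMSO controls is given: cell Painting imaging in 384-well plates, CellProfiler features reduced to at least 20 principal components, Euclidean distance versus same-plate DMSO vehicle wells (0.1% v/v), median over six images per well.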
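Wherever surviving fraction (nuclei count normalised to DMSO) is given: nuclei counted by high-content imaging of Hoechst-stained cells in laminin-coated 384-well plates, relative to 0.1% DMSO vehicle wells, with staurosporine as cell-death control.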

C=C(C)[C@H]1Cc2c(ccc3c2O[C@@H]2COc4cc(OC)c(OC)cc4[C@@H]2C3=O)O1 [Rotenone]
Settings | phenotypic distance | surviving fraction
E13 [3], 4.1 nM | – | 1.02
E13 [3], 12.3 nM | – | 0.894
E13 [3], 37 nM | – | 0.83
E13 [3], 111.1 nM | – | 0.771
E13 [3], 333.3 nM | – | 0.632
E13 [3], 1000 nM | – | 0.566
E13 [3], 3000 nM | – | 0.212
E13 [10], 4.1 nM | 0.548 | –
E13 [10], 12.3 nM | 0.572 | –
E13 [10], 37 nM | 1.04 | –
E13 [10], 111.1 nM | 1.22 | –
E13 [10], 333.3 nM | 2.49 | –
E13 [10], 1000 nM | 3.77 | –
E13 [10], 3000 nM | 6.02 | –
E21 [4], 4.1 nM | – | 0.993
E21 [4], 12.3 nM | – | 0.918
E21 [4], 37 nM | – | 0.978
E21 [4], 111.1 nM | – | 0.905
E21 [4], 333.3 nM | – | 0.822
E21 [4], 1000 nM | – | 0.511
E21 [4], 3000 nM | – | 0.147
E21 [11], 4.1 nM | 0.532 | –
E21 [11], 12.3 nM | 0.585 | –
E21 [11], 37 nM | 0.921 | –
E21 [11], 111.1 nM | 1.37 | –
E21 [11], 333.3 nM | 2.24 | –
E21 [11], 1000 nM | 3.52 | –
E21 [11], 3000 nM | 7.81 | –
E28 [1], 4.1 nM | – | 1.05
E28 [1], 12.3 nM | – | 0.989
E28 [1], 37 nM | – | 0.906
E28 [1], 111.1 nM | – | 0.904
E28 [1], 333.3 nM | – | 0.818
E28 [1], 1000 nM | – | 0.648
E28 [1], 3000 nM | – | 0.425
E28 [8], 4.1 nM | 0.546 | –
E28 [8], 12.3 nM | 0.394 | –
E28 [8], 37 nM | 0.642 | –
E28 [8], 111.1 nM | 0.779 | –
E28 [8], 333.3 nM | 1.31 | –
E28 [8], 1000 nM | 2.44 | –
E28 [8], 3000 nM | 3.1 | –
E31 [7], 4.1 nM | – | 0.905
E31 [7], 12.3 nM | – | 0.93
E31 [7], 37 nM | – | 1
E31 [7], 111.1 nM | – | 0.862
E31 [7], 333.3 nM | – | 0.672
E31 [7], 1000 nM | – | 0.385
E31 [7], 3000 nM | – | 0.135
E31 [14], 4.1 nM | 0.668 | –
E31 [14], 12.3 nM | 0.711 | –
E31 [14], 37 nM | 2.14 | –
E31 [14], 111.1 nM | 1.02 | –
E31 [14], 333.3 nM | 1.3 | –
E31 [14], 1000 nM | 2.13 | –
E31 [14], 3000 nM | 5.49 | –
E34 [2], 4.1 nM | – | 1.04
E34 [2], 12.3 nM | – | 1.04
E34 [2], 37 nM | – | 0.855
E34 [2], 111.1 nM | – | 0.843
E34 [2], 333.3 nM | – | 0.755
E34 [2], 1000 nM | – | 0.786
E34 [2], 3000 nM | – | 0.473
E34 [9], 4.1 nM | 0.805 | –
E34 [9], 12.3 nM | 1 | –
E34 [9], 37 nM | 0.736 | –
E34 [9], 111.1 nM | 0.699 | –
E34 [9], 333.3 nM | 1.76 | –
E34 [9], 1000 nM | 1.95 | –
E34 [9], 3000 nM | 3.52 | –
E57 [5], 4.1 nM | – | 1.04
E57 [5], 12.3 nM | – | 1.05
E57 [5], 37 nM | – | 0.983
E57 [5], 111.1 nM | – | 0.959
E57 [5], 333.3 nM | – | 0.941
E57 [5], 1000 nM | – | 0.821
E57 [5], 3000 nM | – | 0.188
E57 [12], 4.1 nM | 0.304 | –
E57 [12], 12.3 nM | 0.356 | –
E57 [12], 37 nM | 0.67 | –
E57 [12], 111.1 nM | 0.385 | –
E57 [12], 333.3 nM | 1.23 | –
E57 [12], 1000 nM | 1.95 | –
E57 [12], 3000 nM | 6.35 | –
FT3469 [6], 4.1 nM | – | 1.12
FT3469 [6], 12.3 nM | – | 0.838
FT3469 [6], 37 nM | – | 0.826
FT3469 [6], 111.1 nM | – | 0.877
FT3469 [6], 333.3 nM | – | 0.897
FT3469 [6], 1000 nM | – | 0.744
FT3469 [6], 3000 nM | – | 0.448
FT3469 [13], 4.1 nM | 0.458 | –
FT3469 [13], 12.3 nM | 0.898 | –
FT3469 [13], 37 nM | 0.644 | –
FT3469 [13], 111.1 nM | 1.18 | –
FT3469 [13], 333.3 nM | 1.03 | –
FT3469 [13], 1000 nM | 2.14 | –
FT3469 [13], 3000 nM | 3.61 | –
